Test results: article PMC8508980, “Design, Synthesis and Anticancer Profile of New 4-(1H-benzo[d]imidazol-1-yl)pyrimidin-2-amine-Linked Sulfonamide Derivatives with V600EBRAF Inhibitory Effect” (International Journal of Molecular Sciences, 2021)

Experiments:
Type in all cases: cell-based, human
T-47D = assay: NCI 60 cell line screen; details: for activity at 10 µM: Homo sapiens, T47D, Breast Cancer, read-out: Percent growth; for percent inhibition: NCI-60 heat map analysis
Outline: (§1)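 Cells grown in RPMI 1640 with 5% FBS were plated 24 h before dosing, then exposed for 48 h at 37 °C to five drug concentrations (maximum 10 µM). Adherent cells were TCA-fixed, suspension cells fixed with 80% TCA. SRB absorbance at 515 nm, relative to time-zero and control plates, gave percent growth and TGI.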

NCI-H460 = assay: NCI 60 cell line screen; details: Homo sapiens; NCI-H460, Non-Small Cell Lung Cancer; read-out: Percent growth
Outline: (§2)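 48 h continuous exposure, five doses, highest 10 µM; cells in RPMI 1640 + 5% FBS at 37 °C, 5% CO2. TCA fixation, sulforhodamine B staining, A515.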

SR = assay: NCI 60 cell line screen; details: for activity at 10 µM: Homo sapiens, Leukemia, read-out: Percent growth
Outline: as §1

RXF 393 = assay: NCI 60 cell line screen; details: Homo sapiens; RXF 393, Renal Cancer; read-out: Percent growth
Outline: as §2

RPMI-8226 = assay: NCI 60 cell line screen; details: Homo sapiens; RPMI-8226, Leukemia; read-out: Percent growth
Outline: as §1

EKVX = assay: NCI 60 cell line screen; details: Homo sapiens, Non-Small Cell Lung Cancer, read-out: Percent growth
Outline: as §2

NCI-H522 = assay: NCI 60 cell line screen; details: Homo sapiens; NCI-H522, Non-Small Cell Lung Cancer; read-out: Percent growth
Outline: as §2

PC-3 = assay: NCI 60 cell line screen; details: Homo sapiens; PC-3, Prostate Cancer; read-out: Percent growth
Outline: as §2

HCT-15 = assay: NCI 60 cell line screen; details: Homo sapiens; HCT-15, Colon Cancer; read-out: Percent growth
Outline: as §2

SNB-75 = assay: NCI 60 cell line screen; details: Homo sapiens; SNB-75, CNS-Cancer; read-out: Percent growth
Outline: as §2

SF-295 = assay: NCI 60 cell line screen; details: Homo sapiens; SF-295, CNS-Cancer; read-out: Percent growth
Outline: as §2

UO-31 = assay: NCI 60 cell line screen; details: Homo sapiens; UO-31, Renal Cancer; read-out: Percent growth
Outline: as §2

HOP-92 = assay: NCI 60 cell line screen; details: Homo sapiens; HOP-92, Non-Small Cell Lung Cancer; read-out: Percent growth
Outline: as §1

[1] = tested on: prostate cancer cell lines; assay: NCI 60 screen, sub-panel mean; details: NCI-60, prostate cancer sub-panel
Description: Anticancer profiling over a panel of 60 cancer cell lines was carried out at the National Cancer Institute (NCI), Bethesda, Maryland, USA, https://dtp.cancer.gov/discovery_development/nci-60/methodology.htm (Last visit 22 September 2021), using the standard procedure (detailed procedure is located in the Supplementary Information page 50 s).
NCI standard procedure for 60 cell lines assay
The human tumor cell lines of the cancer screening panel are grown in RPMI 1640 mediu m containing 5% fetal bovine serum and 2 mM L-glutamine. For a typical screening experiment, cells are inoculated into 96 well microtiter plates in 100 μL at plating densities ranging from 5,000 to 40,000 cells/well depending on the doubling time of individual cell lines. After cell inoculation, the microtiter plates are incubated at 37° C, 5 % CO2, 95 % air and 100 % relative humidity for 24 h prior to addition of experimental drugs.
After 24 h, two plates of each cell line are fixed in situ with TCA, to represent a measurement of the cell population for each cell line at the time of drug addition (Tz). Experimental drugs are solubilized in dimethyl sulfoxide at 400-fold the desired final maximum test concentration (10 µM) and stored frozen prior to use. At the time of drug addition, an aliquot of frozen concentrate is thawed and diluted to twice the desired final maximum test concentration with co mp lete medium containing 50 μg/ml gentamicin. Additional four, 10-fold or ½ log serial dilutions are made to provide a total of five drug concentrations plus control. Aliquots of 100 μl of these different drug dilutions are added to the appropriate microtiter wells already containing 100 μl of medium, resulting in the required final drug concentrations.
Following drug addition, the plates are incubated for an additional 48 h at 37°C, 5 % CO2, 95 % air, and 100 % relative humidity. For adherent cells, the assay is terminated by the addition of cold TCA. Cells are fixed in situ by the gentle addition of 50 μl of cold 50 % (w/v) TCA (final concentration, 10 % TCA) and incubated for 60 minutes at 4°C. The supernatant is discarded, and the plates are washed five times with tap water and air dried. Sulforhodamine B (SRB) solution (100 μl) at 0.4 % (w/v) in 1 % acetic acid is added to each well, and plates are incubated for 10 minutes at room temperature. After staining, unbound dye is removed by washing five times with 1 % acetic acid and the plates are air dried. Bound stain is subsequently solubilized with 10 mM trizma base, and the absorbance is read on an automated plate reader at a wavelength of 515 nm. For suspension cells, the methodology is the same except that the assay is terminated by fixing settled cells at the bottom of the wells by g ently adding 50 μl of 80 % TCA (final concentration, 16 % TCA). Using the seven absorbance measurements [time zero, (Tz), control growth, (C), and test growth in the presence of drug at the five concentration levels (Ti)], the percentage growth is calculated at each of the drug concentrations levels. Percentage growth inhibition is calculated as:
[(Ti-Tz)/(C-Tz)] x 100 for concentrations for which Ti>/=Tz
[(Ti-Tz)/Tz] x 100 for concentrations for which Ti<Tz.
Three dose response parameters are calculated for each experimental agent. Growth inhibition of […]
resulting in a 50% reduction in the net protein increase (as measured by SRB staining) in control cells during the drug incubation. The drug concentration resulting in total growth inhibition […]
(TGI) is calculated from Ti = Tz.

Row | SMILES | activity at 10 µM (T-47D) | percent inhibition (T-47D) | activity at 10 µM (NCI-H460) | activity at 10 µM (SR) | percent inhibition (SR; NCI-60 heat map analysis) | activity at 10 µM (RXF 393) | activity at 10 µM (RPMI-8226) | activity at 10 µM (EKVX) | activity at 10 µM (NCI-H522) | activity at 10 µM (PC-3) | activity at 10 µM (HCT-15) | activity at 10 µM (SNB-75) | activity at 10 µM (SF-295) | activity at 10 µM (UO-31) | activity at 10 µM (HOP-92) | mean percent inhibition [1]
1 | O=S(=O)(NCCCNc1nccc(-n2cnc3ccccc32)n1)c1ccc(Br)cc1 [12k, N-(3-((4-(1H-benzo [d]imidazol-1-yl)pyrimidin-2-yl)amino)propyl)-4-bromo benzenesulfonamide] | 45.3% | 55% | 94.3% | 70.8% | 30% | 111% | 71.1% | 81.5% | 75.5% | 84.7% | 83.2% | 86.1% | 86.5% | 74.3% | 79.3% | –
2 | O=S(=O)(NCCCNc1nccc(-n2cnc3ccccc32)n1)c1ccccc1 [12h, N-(3-((4-(1H-benzo [d]imidazol-1-yl)pyrimidin-2-yl)amino)propyl)benzenesulfonamide] | 45.8% | 55% | 96.9% | 80% | – | 110% | 74.3% | 88.9% | 82.7% | 89.2% | 88% | 89.7% | 92.5% | 75.3% | 84.8% | –
3 | O=S(=O)(NCCCNc1nccc(-n2cnc3ccccc32)n1)c1cccc2ccccc12 [12n, N-(3-((4-(1H-benzo [d]imidazol-1-yl)pyrimidin-2-yl)amino)propyl)naphthalene-1-sulfonamide] | 44.7% | 56% | 89.8% | 75.4% | – | 105% | 69.7% | 75.1% | 70% | 66.7% | 81.8% | 87.2% | 81.2% | 60.7% | 80.2% | around 20%
4 | O=S(=O)(NCCNc1nccc(-n2cnc3ccccc32)n1)c1ccccc1 [12a, N-(2-((4-(1H-benzo [d]imidazol-1-yl)pyrimidin-2-yl)amino)ethyl)benzenesulfonamide] | 75.4% | – | 103% | 97.5% | – | 113% | 84.9% | 91.2% | 93.8% | 93.5% | 97% | 91.8% | 97.3% | 77% | 73.3% | –
5 | COc1ccc(S(=O)(=O)NCCCNc2nccc(-n3cnc4ccccc43)n2)cc1 [12m, N-(3-((4-(1H-benzo [d]imidazol-1-yl)pyrimidin-2-yl)amino)propyl)-4-methoxy benzenesulfonamide] | 66.3% | – | 97.3% | 77.6% | – | 80.6% | 78.6% | 84.4% | 81.1% | 89.7% | 92.3% | 88.2% | 90.5% | 67.2% | 75.8% | –
6 | O=S(=O)(NCCNc1nccc(-n2cnc3ccccc32)n1)c1ccc(Br)cc1 [12d, N-(2-((4-(1H-benzo [d]imidazol-1-yl)pyrimidin-2-yl)amino)ethyl)-4-bromobenzenesulfonamide] | 59.1% | – | 101% | 75.1% | – | 101% | 79.8% | 83.4% | 87.2% | 93.8% | 95.7% | 74.1% | 96.5% | 79.8% | 74.2% | –
7 | COc1ccc(S(=O)(=O)NCCNc2nccc(-n3cnc4ccccc43)n2)cc1 [12f, N-(2-((4-(1H-benzo [d]imidazol-1-yl)pyrimidin-2-yl)amino)ethyl)-4-methoxy benzenesulfonamide] | 82.3% | – | 106% | 89.2% | – | 94.6% | 94% | 89.2% | 84.4% | 97.5% | 93.7% | 78.8% | 97% | 77.3% | 75.4% | –
8 | O=S(=O)(NCCNc1nccc(-n2cnc3ccccc32)n1)c1ccc(Cl)cc1 [12c, N-(2-((4-(1H-benzo [d]imidazol-1-yl)pyrimidin-2-yl)amino)ethyl)-4-chlorobenzenesulfonamide] | 97.1% | – | 103% | 96.3% | – | 117% | 99.4% | 92.2% | 92.1% | 103% | 96.6% | 79.4% | 96.7% | 81.6% | 90.2% | –
9 | O=S(=O)(NCCCNc1nccc(-n2cnc3ccccc32)n1)c1ccc(Cl)cc1 [12j, N-(3-((4-(1H-benzo [d]imidazol-1-yl)pyrimidin-2-yl)amino)propyl)-4-chloro benzenesulfonamide] | 65.3% | – | 99.8% | 81.5% | – | 124% | 78% | 91% | 82.8% | 92.5% | 93.1% | 91.7% | 97.8% | 87.2% | 94.6% | –
10 | O=S(=O)(NCCNc1nccc(-n2cnc3ccccc32)n1)c1ccc(F)cc1 [12b, N-(2-((4-(1H-benzo [d]imidazol-1-yl)pyrimidin-2-yl)amino)ethyl)-4-fluorobenzenesulfonamide] | 64.4% | – | 96.3% | 85.8% | – | 106% | 73.6% | 85.2% | 71.8% | 91.3% | 100% | 73.6% | 93.6% | 72.6% | 82.3% | –
